Converted amounts (≈) assume the structure as drawn. “And” between values parts separate entries of the source, which are not always exact repeats. Identical values can stand only once.
Experiments:
Assay in all cases: ≥ marks a high value that may be exact or a test limit, other limits are often not marked, values filed in µg/mL are converted to µM
Micrococcus luteus = test system: Micrococcus luteus
Bacillus cereus = test system: Bacillus cereus
Staphylococcus aureus = test system: Staphylococcus aureus
Lelliottia amnigena = test system: Lelliottia amnigena
Kluyvera cryocrescens = test system: Kluyvera cryocrescens
Bacillus megaterium = test system: Bacillus megaterium
Shigella sp. = test system: Shigella sp.
Proteus sp. = test system: Proteus sp.
[1] = test system: Salmonella enterica subsp. enterica serovar Typhi
Pseudomonas fluorescens = test system: Pseudomonas fluorescens
Sporosarcina ureae = test system: Sporosarcina ureae
Microbacterium oxydans = test system: Microbacterium oxydans
[2] = test system: Salmonella enterica subsp. enterica serovar Gallinarum
Burkholderia stabilis = test system: Burkholderia stabilis
Aeromonas hydrophila = test system: Aeromonas hydrophila
Escherichia coli = test system: Escherichia coli
Staphylococcus aureus MR = test system: Staphylococcus aureus MR
[3] = test system: Klebsiella pneumoniae ATCC 27736
[4] = test system: Escherichia coli ATCC 10536
[5] = test system: Bacillus subtilis ATCC 6633
Aspergillus fumigatus = test system: Aspergillus fumigatus
[6] = test system: Candida parapsilosis ATCC 22019
Sporothrix schenckii = test system: Sporothrix schenckii
Candida albicans = test system: Candida albicans
[7] = test system: Pseudomonas aeruginosa ATCC BAA-427
[8] = test system: Staphylococcus epidermidis NRRL B-4268
[9] = test system: Staphylococcus aureus ATCC 9144
Cryptococcus neoformans = test system: Cryptococcus neoformans
[10] = test system: Trichophyton mentagrophytes
[11] = test system: Latilactobacillus sakei NCDO 2714
[12] = test system: Lactiplantibacillus plantarum 965
[13] = test system: Fusarium graminearum PH-1
[14] = test system: Microbacterium maritypicum CIP 105733T
Escherichia coli SBS 363 = test system: Escherichia coli SBS 363
[15] = test system: Corynebacterium stationis CIP 101282
[16] = test system: Staphylococcus aureus CIP 103428
[17] = test system: Staphylococcus haemolyticus
[18] = test system: Staphylococcus aureus SG511
[19] = test system: Micrococcus luteus CIP 5345
[20] = test system: Vibrio nigripulchritudo CIP 103195
[21] = test system: Bacillus megaterium CIP 6620
[22] = test system: Vibrio splendidus CIP 107715
[23] = test system: Klebsiella pneumoniae KCTC 2208
[24] = test system: Vibrio anguillarum ATCC 43308
[25] = test system: Acinetobacter baumannii KCTC 2508
[26] = test system: Escherichia coli ATCC 25922
Klebsiella pneumoniae = test system: Klebsiella pneumoniae
[27] = test system: Micrococcus luteus ATCC 49732
[28] = test system: Pseudomonas aeruginosa ATCC 27853
[29] = test system: Staphylococcus aureus ATCC 25923
Escherichia coli HB101 = test system: Escherichia coli HB101

**Q.** With `CC[C@H](C)[C@H](NC(=O)[C@H](Cc1cnc[nH]1)NC(=O)[C@H](CC(N)=O)NC(=O)[C@@H](NC(=O)[C@@H](NC(=O)[C@H](CC(C)C)NC(=O)[C@H](CC(=O)O)NC(=O)[C@@H]1CCCN1C(=O)[C@H](CC(C)C)NC(=O)[C@H](CCCCN)NC(=O)[C@H](Cc1c[nH]c2ccccc12)NC(=O)[C@@H](N)CCC(=O)O)[C@@H](C)CC)[C@@H](C)CC)C(=O)N[C@H](C(=O)N[C@@H](CC(C)C)C(=O)N[C@H](C(=O)N[C@@H](CCCN=C(N)N)C(=O)N[C@@H](CCCN=C(N)N)C(=O)N[C@@H](CC(N)=O)C(=O)N[C@H]1CSSC[C@@H](C(=O)NCC(=O)O)NC(=O)[C@H](CCCN=C(N)N)NC(=O)[C@H](Cc2ccc(O)cc2)NC(=O)[C@H](CCCCN)NC(=O)[C@H](Cc2ccccc2)NC1=O)[C@@H](C)O)[C@@H](C)O` [EWKLPDLIINHITLTRRNCFKYRCG] as the molecule, how does the MIC (Micrococcus luteus) read?
**A.** 16.4 µM (≈ 50.7 µg/mL)

**Q.** And the MIC (Bacillus cereus)?
**A.** 0.327 µM (≈ 1.01 µg/mL)

**Q.** What about the MIC (Staphylococcus aureus) of the same molecule?
**A.** 164 µM (≈ 507 µg/mL)

**Q.** What about the MIC (Lelliottia amnigena) of the same molecule?
**A.** 16.4 µM (≈ 50.7 µg/mL)

**Q.** And the MIC (Kluyvera cryocrescens)?
**A.** ≥ 164 µM

**Q.** And the MIC (Bacillus megaterium)?
**A.** 3.27 µM (≈ 10.1 µg/mL)

**Q.** And the MIC (Shigella sp.)?
**A.** 16.4 µM (≈ 50.7 µg/mL)

**Q.** What about the MIC (Proteus sp.) of the same molecule?
**A.** ≥ 164 µM

**Q.** And the MIC [1]?
**A.** 16.4 µM (≈ 50.7 µg/mL)

**Q.** What about the MIC (Pseudomonas fluorescens) of the same molecule?
**A.** ≥ 32.7 µM

**Q.** And the MIC (Sporosarcina ureae)?
**A.** ≥ 164 µM

**Q.** What about the MIC (Microbacterium oxydans) of the same molecule?
**A.** 0.164 µM (≈ 0.507 µg/mL)

**Q.** What about the MIC [2] of the same molecule?
**A.** 1.64 µM (≈ 5.07 µg/mL)

**Q.** And the MIC (Burkholderia stabilis)?
**A.** ≥ 164 µM

**Q.** And the MIC (Aeromonas hydrophila)?
**A.** 1.64 µM (≈ 5.07 µg/mL)

**Q.** And the MIC (Escherichia coli)?
**A.** 16.4 µM (≈ 50.7 µg/mL)

**Q.** With `CC(C)C[C@H](NC(=O)[C@H](CCCCN)NC(=O)[C@H](CC(C)C)NC(=O)[C@H](Cc1ccccc1)NC(=O)[C@H](CCCN=C(N)N)NC(=O)[C@H](CCCN=C(N)N)NC(=O)[C@H](Cc1ccccc1)NC(=O)[C@H](Cc1c[nH]c2ccccc12)NC(=O)[C@H](CCCCN)NC(=O)[C@H](CCCN=C(N)N)NC(=O)[C@H](Cc1ccccc1)NC(=O)[C@H](CCCN=C(N)N)NC(=O)[C@H](CCCN=C(N)N)NC(=O)[C@@H](N)Cc1ccccc1)C(=O)N[C@@H](Cc1ccccc1)C(N)=O` [FRRFRKWFRRFLKLF] as the molecule, how does the MIC (Staphylococcus aureus MR) read?
**A.** 25 µM (≈ 55.1 µg/mL)

**Q.** What about the MIC [3] of the same molecule?
**A.** 6 µM (≈ 13.2 µg/mL)

**Q.** And the MIC [4]?
**A.** 6 µM (≈ 13.2 µg/mL)

**Q.** What about the MIC [5] of the same molecule?
**A.** 11.3 µM (≈ 24.9 µg/mL)

**Q.** What about the MIC (Aspergillus fumigatus) of the same molecule?
**A.** 3 µM (≈ 6.61 µg/mL)

**Q.** And the MIC [6]?
**A.** 3 µM (≈ 6.61 µg/mL)

**Q.** What about the MIC (Sporothrix schenckii) of the same molecule?
**A.** 3 µM (≈ 6.61 µg/mL)

**Q.** What about the MIC (Candida albicans) of the same molecule?
**A.** 3.1 µM (≈ 6.83 µg/mL)

**Q.** What about the MIC [7] of the same molecule?
**A.** 25 µM (≈ 55.1 µg/mL)

**Q.** What about the MIC [8] of the same molecule?
**A.** 13.2 µM (≈ 29.1 µg/mL)

**Q.** And the MIC [9]?
**A.** 6.25 µM (≈ 13.8 µg/mL)

**Q.** And the MIC (Cryptococcus neoformans)?
**A.** 6.1 µM (≈ 13.4 µg/mL)

**Q.** And the MIC [10]?
**A.** 3 µM (≈ 6.61 µg/mL)

**Q.** Which MIC [11] does the source give for `CC[C@H](C)[C@H](NC(=O)[C@H](C)NC(=O)[C@@H](NC(=O)[C@H](C)NC(=O)CN)[C@@H](C)O)C(=O)N[C@@H](CCCCN)C(=O)N[C@@H](CCC(N)=O)C(=O)N[C@H](C(=O)N[C@@H](CCCCN)C(=O)N[C@@H](CCCCN)C(=O)N[C@@H](CC(C)C)C(=O)N[C@@H](Cc1ccccc1)C(=O)N[C@@H](CCCCN)C(=O)N[C@@H](CCCCN)C(=O)N[C@@H](Cc1c[nH]c2ccccc12)C(=O)NCC(=O)N[C@@H](Cc1c[nH]c2ccccc12)C(=O)O)C(C)C` [GATAIKQVKKLFKKWGW] here?
**A.** 0.015 µM (≈ 0.0298 µg/mL)

**Q.** What about the MIC [12] of the same molecule?
**A.** 0.4 µM (≈ 0.796 µg/mL)

**Q.** `C[C@@H]1NC(=O)[C@@H](NC(=O)[C@@H]2CCCN2C(=O)CN)CSSC[C@@H](C(=O)O)NC(=O)[C@H](CC(N)=O)NC(=O)[C@H](Cc2cnc[nH]2)NC(=O)[C@H](CC(=O)O)NC(=O)[C@H](CO)NC1=O` [GPCASDHNC] was tested. Which MIC [13] did it give?
**A.** ≥ 48 µM

**Q.** Which MIC [14] does the source give for `CC[C@H](C)[C@H](NC(=O)[C@@H]1CCCN1C(=O)CN)C(=O)N[C@@H](CCCN=C(N)N)C(=O)N[C@@H](CCCN=C(N)N)C(=O)N1CCC[C@H]1C(=O)N[C@@H](CCCCN)C(=O)N1CCC[C@H]1C(=O)N[C@@H](CCCN=C(N)N)C(=O)N1CCC[C@H]1C(=O)N[C@@H](CCCN=C(N)N)C(=O)N[C@@H](CCC(N)=O)C(=O)N[C@@H](CCCN=C(N)N)C(=O)N1CCC[C@H]1C(=O)N[C@@H](CCC(=O)O)C(=O)O` [GPIRRPKPRPRQRPE] here?
**A.** 20 µM (≈ 36.8 µg/mL)

**Q.** And the MIC (Escherichia coli SBS 363)?
**A.** ≥ 80 µM

**Q.** And the MIC [15]?
**A.** 20 µM (≈ 36.8 µg/mL)

**Q.** What about the MIC [16] of the same molecule?
**A.** 20 µM (≈ 36.8 µg/mL)

**Q.** What about the MIC [17] of the same molecule?
**A.** 20 µM (≈ 36.8 µg/mL)

**Q.** And the MIC [18]?
**A.** 20 µM (≈ 36.8 µg/mL)

**Q.** What about the MIC [19] of the same molecule?
**A.** ≥ 80 µM

**Q.** What about the MIC [20] of the same molecule?
**A.** ≥ 40 µM

**Q.** What about the MIC [21] of the same molecule?
**A.** 20 µM (≈ 36.8 µg/mL)

**Q.** What about the MIC [22] of the same molecule?
**A.** ≥ 40 µM

**Q.** With `CC[C@H](C)[C@H](NC(=O)[C@@H](NC(=O)[C@H](Cc1cnc[nH]1)NC(=O)[C@H](CCCN=C(N)N)NC(=O)[C@H](C)NC(=O)[C@H](CCCN=C(N)N)NC(=O)[C@H](CC(C)C)NC(=O)[C@H](CO)NC(=O)[C@H](C)NC(=O)[C@H](CS)NC(=O)[C@H](CC(C)C)NC(=O)[C@@H](N)CC(N)=O)[C@@H](C)O)C(=O)N1CCC[C@H]1C(=O)N[C@@H](CCC(N)=O)C(=O)N[C@@H](CS)C(=O)N[C@@H](CCCCN)C(=O)N[C@@H](CCCCN)C(=O)N[C@@H](Cc1ccccc1)C(=O)NCC(=O)N[C@@H](CCCN=C(N)N)C(=O)N[C@@H](CCCN=C(N)N)C(=O)O` [NLCASLRARHTIPQCKKFGRR] as the molecule, how does the MIC [23] read?
**A.** 16 µM (≈ 39.3 µg/mL)

**Q.** What about the MIC [24] of the same molecule?
**A.** 5.09 µM (≈ 12.5 µg/mL)

**Q.** And the MIC [25]?
**A.** 16 µM (≈ 39.3 µg/mL)

**Q.** And the MIC [26]?
**A.** 2.57 µM (≈ 6.3 µg/mL)

**Q.** And the MIC (Klebsiella pneumoniae)?
**A.** > 32 µM and 16 µM

**Q.** What about the MIC [27] of the same molecule?
**A.** 2.57 µM (≈ 6.3 µg/mL)

**Q.** What about the MIC [28] of the same molecule?
**A.** 32 µM (≈ 78.6 µg/mL)

**Q.** What about the MIC [29] of the same molecule?
**A.** 2.57 µM (≈ 6.3 µg/mL)

**Q.** For `CC[C@H](C)[C@H](NC(=O)[C@H](CCCN=C(N)N)NC(=O)[C@@H](N)CCCN=C(N)N)C(=O)N[C@@H](CCCN=C(N)N)C(=O)N1CCC[C@H]1C(=O)N[C@@H](CCCN=C(N)N)C(=O)N1CCC[C@H]1C(=O)N[C@@H](CCCN=C(N)N)C(=O)O` [RRIRPRPR], which MIC (Escherichia coli HB101) is on record?
**A.** ≥ 128 µM

**Q.** What about the MIC [26] of the same molecule?
**A.** > 128 µM

From DBAASP
